Measured values reported in US7037644B1, “Means and methods for monitoring non-nucleoside reverse transcriptase inhibitor antiretroviral therapy and guiding therapeutic decisions in the treatment of HIV/AIDS” (ViroLogic, Inc., priority 1998, dated 2006).
Entries after “also recorded” stand apart in the source; their conditions may differ.

What was measured:
[1] = system: RTV-209, patient 97-209 (RT E138A, Y188L); assay: Phenotypic susceptibility assay (patient RTV); format: cell-based, HIV-1; settings: patient RTV pool
Procedure: (§1) The resistance test vectors containing a functional luciferase gene cassette were constructed and host cells were transfected with the resistance test vector DNA. The resistant test vectors contained patient-derived reverse transcriptase and protease sequences that were either susceptible or resistant to the antiretroviral agents, such as nucleoside reverse transcriptase inhibitors, non-nucleoside reverse transcriptase inhibitors and protease inhibitors. […] The IC50 values were determined by plotting percent drug inhibition vs. log10 drug concentration.
(§2) Host cells were seeded in 10-cm-diameter dishes and were transfected several days after plating with resistance test vector plasmid DNA and the envelope expression vector. […] HIV capsid protein (p24) levels in the harvested cell culture media were determined by an EIA method as described by the manufacturer (SIAC; Frederick, Md.). […] The inhibitory effect of the drug was determined using the following equation: % luciferase inhibition=1−(RLUluc [drug]÷RLUluc)×100 where RLUluc [drug] is the relative light unit of luciferase activity in infected cells in the presence of drug and RLUluc is the Relative Light Unit of luciferase activity in infected cells in the absence of drug. […]

[2] = system: RTV-652, patient 98-652 (RT V108I); assay: Phenotypic susceptibility assay (patient RTV); format: cell-based, HIV-1; settings: patient RTV pool; below 1 = increased susceptibility
Procedure: as §1, §2

[3] = system: RTV with P236L plus K103N, Y181C or both; assay: Phenotypic susceptibility assay (site directed mutant RTV); format: cell-based, HIV-1; settings: P236L with K103N and/or Y181C vs RTV lacking P236L
Text: (§3) The resistance test vectors containing a functional luciferase gene cassette were constructed and host cells were transfected with the resistance test vector DNA. The resistant test vectors contained patient-derived reverse transcriptase and protease sequences that were either susceptible or resistant to the antiretroviral agents, such as nucleoside reverse transcriptase inhibitors, non-nucleoside reverse transcriptase inhibitors and protease inhibitors. The resistance test vector viral particles produced by transfecting the resistance test vector DNA into host cells, either in the presence or absence of protease inhibitors, were used to infect target host cells grown either in the absence of NRTI or NNRTI or in the presence of increasing concentrations of the drug. The amount of luciferase activity produced in infected target host cells in the presence of drug was compared to the amount of luciferase produced in infected target host cells in the absence of drug. Drug resistance was measured as the amount of drug required to inhibit by 50% the luciferase activity detected in the absence of drug (inhibitory concentration 50%, IC50). The IC50 values were determined by plotting percent drug inhibition vs. log10 drug concentration.
Host cells were seeded in 10-cm-diameter dishes and were transfected several days after plating with resistance test vector plasmid DNA and the envelope expression vector. Transfections were performed using a calcium-phosphate precipitation procedure. The cell culture media containing the DNA precipitate was replaced with fresh medium, from one to 24 hours, after transfection. Cell culture media containing resistance test vector viral particles was harvested one to four days after transfection and was passed through a […] filter before being stored at […]. HIV capsid protein (p24) levels in the harvested cell culture media were determined by an EIA method as described by the manufacturer (SIAC; Frederick, Md.). Before infection, target cells (293 and 293/T) were plated in cell culture media. Control infections were performed using cell culture media from mock transfections (no DNA) or transfections containing the resistance test vector plasmid DNA without the envelope expression plasmid. One to three or more days after infection the media was removed and cell lysis buffer (Promega) was added to each well. Cell lysates were assayed for luciferase activity (FIG. 3). The inhibitory effect of the drug was determined using the following equation: % luciferase inhibition=1−(RLUluc [drug]÷RLUluc)×100 where RLUluc [drug] is the relative light unit of luciferase activity in infected cells in the presence of drug and RLUluc is the Relative Light Unit of luciferase activity in infected cells in the absence of drug. IC50 values were obtained from the sigmoidal curves that were generated from the data by plotting the percent inhibition of luciferase activity vs. the log10 drug concentration. The drug inhibition curves are shown in (FIG. 3).
Genotypic changes that are observed to correlate with changes in phenotypic patterns of drug susceptibility are evaluated by construction of resistance test vectors containing the specific mutation on a defined, wild-type (drug susceptible) genetic background. Mutations may be incorporated alone and/or in combination with other known drug resistance mutations that are thought to modulate the susceptibility of HIV to a certain drug or class of drugs. Mutations are introduced into the resistance test vector through any of the widely known methods for site-directed mutagenesis. In one embodiment of this invention the mega-primer PCR method for site-directed mutagenesis is used. […]

[4] = system: individual virus clones of patient 302: (K103N, P225H) compared with (K103N, I135M, R211K); assay: Phenotypic susceptibility assay (patient virus clones); format: cell-based, HIV; settings: FIG. 8G
Text: as §3, with “Drug resistance was measured as the amount of drug required to inhibit by 50% the luciferase activity detected in the absence of drug (inhibitory concentration 50%, IC50).” left out
Host cells were seeded in 10-cm-diameter dishes and were transfected several days after plating with resistance test vector plasmid DNA and the envelope expression vector. […] HIV capsid protein (p24) levels in the harvested cell culture media were determined by an EIA method as described by the manufacturer (SIAC; Frederick, Md.). […]

[5] = system: G190S-RTV and G190A-RTV (mutation at codon 190); assay: Phenotypic susceptibility assay (site directed mutant RTV); format: cell-based, HIV-1; settings: G190A or G190S vs wild type reference RTV; also statements on codon 190 alone or with 103/101
Procedure: as §1, §2

SMILES | decrease in susceptibility (fold, IC50) [1] | change in susceptibility (fold, IC50) [2] [fold] | change in susceptibility [3] | effect of P225H on resistance associated with K103N [4] | change in susceptibility [5]
CC(C)Nc1cccnc1N1CCN(C(=O)c2cc3cc(NS(C)(=O)=O)ccc3[nH]2)CC1 [delavirdine] | 75 fold | 0.97 | less susceptible; also recorded: additional reduction; also recorded: severe resistance | reduces the amount delavirdine resistance | slightly more susceptible; also recorded: slightly increase susceptibility; also recorded: slight increase
O=C1Nc2ccc(Cl)cc2[C@@](C#CC2CC2)(C(F)(F)F)O1 [efavirenz] | – | – | restores a significant portion of the loss of susceptibility | – | –
Cc1ccnc2c1NC(=O)c1cccnc1N2C1CC1 [nevirapine] | greater than 800 fold | 5 | – | does not alter | markedly less susceptible; also recorded: greatly reduce susceptibility; also recorded: large decrease
